The experiment has as its target T1, cloned human dopamine D3 receptors (Homo sapiens, UniProt P35462).
T1 construct: expressed in transfected cells; membrane homogenate
Put plainly: [N-Methyl-3H]Spiroperidol binding to cloned human dopamine D3 receptors (Protocol 1). The essentials:
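Radioligand displacement with [N-methyl-3H]spiroperidol used a physiological-salt Tris buffer (0.05 M, pH 7.7; NaCl 120 mM, KCl 5 mM, CaCl2 2 mM, MgCl2 1 mM) and membranes of a high-expressing stable CHO clone carrying human D3. Total ligand concentration came from measured added CPM; 0.1% ascorbic acid was optional for oxidizable compounds.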

The mark [1] stands for this setting: the 21st table, read-out: D3 Ki.
[2] abbreviates: the 16th table, read-out: D3 Ki.

Drawing on patent publication US7550469B2, “Heterocyclic amide derivatives and their use as dopamine D3 receptor ligands” (Aventis Pharmaceuticals Inc., priority 2001, dated 2009), this text covers Ki for 24 molecules.

Each structure is given as a SMILES string. Read-outs that look alike come from different tables or passages of the source.

T1 sequence (P35462 whole entry): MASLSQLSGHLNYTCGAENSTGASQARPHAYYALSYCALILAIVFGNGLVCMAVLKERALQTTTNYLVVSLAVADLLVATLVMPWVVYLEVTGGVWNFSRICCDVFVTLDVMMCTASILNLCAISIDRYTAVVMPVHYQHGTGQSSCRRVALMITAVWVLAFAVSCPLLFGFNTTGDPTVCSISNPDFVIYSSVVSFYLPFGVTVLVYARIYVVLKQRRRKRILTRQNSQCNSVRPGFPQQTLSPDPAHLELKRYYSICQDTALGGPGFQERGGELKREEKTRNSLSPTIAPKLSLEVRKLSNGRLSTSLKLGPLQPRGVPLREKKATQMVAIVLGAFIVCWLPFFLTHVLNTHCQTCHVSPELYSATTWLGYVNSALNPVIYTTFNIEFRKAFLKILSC

`C[C@@H]1CN(c2csc3cc(C(F)(F)F)ccc23)C[C@H](C)N1CCCCNC(=O)c1ccc(OC(F)(F)F)cc1` [compound 827040]: the Ki under setting [1] was 165 nM.

In the case of `C[C@@H]1CN(c2csc3cc(C(F)(F)F)ccc23)C[C@H](C)N1CCCCNC(=O)c1cccc2ccccc12` [compound 827041], under setting [1], the Ki amounted to 357 nM. The same measure, in the same setting: the result for `C[C@@H]1CN(c2csc3cc(C(F)(F)F)ccc23)C[C@H](C)N1CCCCNC(=O)c1ccc2ccccc2c1` [compound 827042] reads 112 nM; that for `C[C@@H]1CN(c2csc3cc(C(F)(F)F)ccc23)C[C@H](C)N1CCCCNC(=O)c1cccc(C(F)(F)F)c1` [compound 827043], 322 nM; that for `C[C@@H]1CN(c2csc3cc(C(F)(F)F)ccc23)C[C@H](C)N1CCCCNC(=O)c1cccc(F)c1` [compound 827044], 186 nM.

`C[C@@H]1CN(c2csc3cc(C(F)(F)F)ccc23)C[C@H](C)N1CCCCNC(=O)c1cc2ccccc2s1` [compound 827045]: under setting [1], the Ki is 97.8 nM. Same read-out and setting: the result for `C[C@@H]1CN(c2csc3cc(C(F)(F)F)ccc23)C[C@H](C)N1CCCCNC(=O)c1cccs1` [compound 827046] reads 56.9 nM. Consider `C[C@@H]1CN(c2csc3cc(F)ccc23)C[C@H](C)N1CCCCNC(=O)c1cccc(Cl)c1` [compound 827047], for which the Ki under setting [1] is 65.1 nM. The same measure, in the same setting: the figure for `COc1cc(OC)cc(C(=O)NCCCCN2[C@H](C)CN(c3csc4cc(F)ccc34)C[C@@H]2C)c1` [compound 827048] is 317 nM. The same measure, in the same setting: the result for `C[C@@H]1CN(c2csc3cc(F)ccc23)C[C@H](C)N1CCCCNC(=O)c1ccc(OC(F)(F)F)cc1` [compound 827049] reads 50.9 nM; that for `C[C@@H]1CN(c2csc3cc(F)ccc23)C[C@H](C)N1CCCCNC(=O)c1cccc2ccccc12` [compound 827050], 186 nM; that for `C[C@@H]1CN(c2csc3cc(F)ccc23)C[C@H](C)N1CCCCNC(=O)c1ccc2ccccc2c1` [compound 827051], 29.5 nM. Take `C[C@@H]1CN(c2csc3cc(F)ccc23)C[C@H](C)N1CCCCNC(=O)c1cccc(C(F)(F)F)c1` [compound 827052]: the Ki under setting [1] was 153 nM. `C[C@@H]1CN(c2csc3cc(F)ccc23)C[C@H](C)N1CCCCNC(=O)c1cccc(F)c1` [compound 827053]: the Ki under setting [1] was 53.9 nM. Same read-out and setting: the figure for `C[C@@H]1CN(c2csc3cc(F)ccc23)C[C@H](C)N1CCCCNC(=O)c1cc2ccccc2s1` [compound 827054] is 43.5 nM. Regarding `O=C(NCCCCN1CCCN(c2csc3cc(F)ccc23)CC1)c1cc2cccc(F)c2o1` [compound 827120], the Ki (Table 2, read-out: D3K1) turned out to be 32.9 nM and the Ki under setting [2] came out at 32.9 nM. As for `COc1cccc2cc(C(=O)NCCCCN3CCCN(c4csc5cc(F)ccc45)CC3)oc12` [compound 827121], the Ki reads like this: (Table 2, read-out: D3K1) 21.6 nM; under setting [2], 21.6 nM. Turning to `COc1ccc2cc(C(=O)NCCCCN3CCCN(c4csc5cc(F)ccc45)CC3)oc2c1` [compound 827122], the Ki by setting is: (Table 2, read-out: D3K1) 6.06 nM; under setting [2], 6.06 nM. Take `CCN(CC)c1ccc2cc(C(=O)NCCCCN3CCCN(c4csc5cc(F)ccc45)CC3)oc2c1` [compound 827123]: the Ki by setting is: (Table 2, read-out: D3K1) 107 nM; under setting [2], 107 nM. On to `O=C(NCCCCN1CCCN(c2csc3cc(F)ccc23)CC1)c1cc2c(Cl)cc(Cl)cc2o1` [compound 827124], for which the Ki is, setting by setting: (Table 2, read-out: D3K1) 16.6 nM; under setting [2], 16.6 nM. Consider `COc1cc(Br)cc2cc(C(=O)NCCCCN3CCCN(c4csc5cc(F)ccc45)CC3)oc12` [compound 827125], for which the Ki turned out to be 28.3 nM (Table 2, read-out: D3K1) and 28.3 nM under setting [2]. Regarding `O=C(NCCCCN1CCCN(c2csc3cc(F)ccc23)CC1)c1cc2cc(OC(F)(F)F)ccc2o1` [compound 827127], the Ki reads like this: (Table 2, read-out: D3K1) 74.3 nM; under setting [2], 74.3 nM. Regarding `COc1cccc2oc(C(=O)NCCCCN3CCCN(c4csc5cc(F)ccc45)CC3)cc12` [compound 827128], the Ki is, setting by setting: (Table 2, read-out: D3K1) 19.1 nM; under setting [2], 19.1 nM. For the molecule `Cc1ccc2oc(C(=O)NCCCCN3CCCN(c4csc5cc(F)ccc45)CC3)cc2c1` [compound 827129], the Ki runs as follows: (Table 2, read-out: D3K1) 7.75 nM; under setting [2], 7.75 nM.
